Measured values: a melting point compilation (Tetko et al.; mined from patent text by program, amines drawn as free bases though some values may be those of a salt)

Row | Structure (SMILES) | melting point [°C]
1 | COc1c(O)cnc(C)c1C | 274 to 276
2 | CC(C)(C)c1cc(CN2CC(N(O)C(=O)Oc3ccccc3)C2)cc(C(C)(C)C)c1O | 161 to 163
3 | CCN1c2ncccc2C(N2CCCC2)=Nc2c(C)cc(C)nc21 | 138 to 140
4 | N#Cc1ccc(OCCCCCOc2ccc(-c3cc4ccc(C#N)cc4o3)cc2)cc1 | 165 to 167
5 | COc1cncc(-c2ccc(OC3SCC(OC(C)=O)C(OC(C)=O)C3OC(C)=O)cn2)c1 (stereo unspecified) | 155
6 | Cc1ccc2c(c1)c1c(n2C)CC(C(=O)O)CC1 (stereo unspecified) | 84 to 85
7 | CCCn1c(=O)c2c(nc(/C=C/c3ccc4c(c3)OCCO4)n2C)n(CCC)c1=O | 182
8 | CCC(C)Cc1nc(-c2cc[nH]n2)nc(OC)c1-c1c(F)cc(F)cc1F (stereo unspecified) | 124
9 | CC(=O)CC(=O)CCC(=O)CC(C)=O | 62.7 to 64
10 | COC(=O)C#CCCc1c(C)c(OC)c(C)c(C)c1OC | 71 to 72
11 | CC(Oc1cc(-c2nn(C)c(OC(F)F)c2Cl)c(Cl)cc1Cl)C(=O)N(C)C (stereo unspecified) | 149
12 | CCCCCCCCCCCCCCCCCCNC(=O)Nc1ccc(O)cc1 | 144
13 | O=C(O)C1CSC(c2ccc(OCCO[N+](=O)[O-])cc2)N1 (stereo unspecified) | 139 to 141
14 | COc1cc(N)c(C(=O)N(C)C)cc1OC | 94 to 103
15 | COCNC(=O)ON=C1SCOC1C (stereo unspecified) | 78 to 79
16 | COC(=O)c1cc(N)c(Cl)c(N)c1 | 110 to 120
17 | N#Cc1c(Cl)c(F)cc(C(=O)Cl)c1Cl | 73 to 75
18 | CCCCCCCCCCOc1ccc(Oc2cccc(C(=O)O)c2)cc1CCC(=O)O | 102 to 104
19 | CCCCOc1c(NC(C)(C)CC)c(=O)c1=O | 56 to 57
20 | CN(C)CCNc1ccnc2cc3c(cc12)OCO3 | 193 to 194
21 | O=C1NC2CCC1C(O)C2 (stereo unspecified) | 115 to 120
22 | CC(CO)Nc1cc(Oc2nn(C)c(C(F)(F)F)c2Cl)ccc1[N+](=O)[O-] (stereo unspecified) | 118 to 120

Row | Structure (SMILES) | melting point [°C]
23 | Oc1cc(C(F)(F)F)nc2cccc(C(F)(F)F)c12 | 314 to 315
24 | CCOCc1nc2c(N)nc3cc(O)ccc3c2n1CC(C)C | > 265
25 | O=CNNc1cccc([N+](=O)[O-])c1 | 168 to 169
26 | CC(C)(C)c1ncc(C(=C(Cl)Cl)C(F)(F)F)cn1 | 58
27 | COC(=O)C(=CN(C)C)c1cc(F)cc(F)c1 | 97
28 | O=C1CC2(SCCS2)C(=O)N1 | 112 to 115
29 | Nc1ccc2c(ccn2O)n1 | 227 to 228
30 | COC(=O)CCCCC(O)c1ccc2c(c1)CCCC2 (stereo unspecified) | 107 to 108
31 | CC(C)(C)c1cc(SCCC(=O)O)cc(C(C)(C)C)c1O | 108 to 110
32 | CCS(=O)(=O)Nc1cc(-n2nc3n(c2=O)CCS3)c(F)cc1C#N | 209 to 211
33 | CCN1CC2=C3C(=NN(c4ccc(C(C)C)cc4Br)C(=O)N3CC2)C(C)=N1 | 144 to 146
34 | CCCCCCCCCCOC(=O)c1nc(-c2ccc(Cl)cc2)c(F)c(N)c1Cl | 62 to 63
35 | CC1(C)CNc2cc(C(F)(F)F)ccc2C1=O | 121 to 122
36 | COC(=O)c1cc2ccc(C(=O)NC(CO[Si](C)(C)C(C)(C)C)CO[Si](C)(C)C(C)(C)C)cc2[nH]1 | 127 to 129
37 | CCCCCCCCCCCCCCCCCCNCP(=O)(O)O | 108 to 112
38 | CC(CCCC(O)(C(F)(F)F)C(F)(F)F)C1CCC2C3C=CC4=CC(=O)C=CC4(C)C3CCC12C (stereo unspecified) | 166 to 168
39 | CC1CC=NN1C(=O)c1cnccn1 (stereo unspecified) | 77 to 79
40 | O=c1c2cc(F)c(N3CCCC3)nc2n(-c2ccc(F)cc2F)c(=O)n1O | 189 to 191
41 | COc1ccc(-c2sc3cc(O)ccc3c2Oc2ccc(OCCN3CCCCC3)cc2)cc1 | 157
42 | OCC1(Cc2ccc(Cl)c(Cl)c2)CCNCC1 | 148 to 149
43 | O=C1Cc2cc3cc(OCCCC(=O)N4CCN(CC5CCCCC5)CC4)ccc3nc2N1 | 212

More lines, now with the values ahead:

Row | melting point [°C] | Structure (SMILES)
44 | 120 to 122 | c1cncc(NCCCOc2cccc(CN3CCCCC3)c2)c1
45 | 173 to 174 | CNc1nnc(-c2cccc(F)c2)c(=O)n1NC
46 | 164 to 166 | OCc1ccccc1-c1ccc2nc(-c3ccc(Cl)cc3)cn2c1
47 | 179 to 181 | COC(=O)c1ccc(-n2c(C)nc3cc(C#N)ccc32)cc1
48 | 101 to 102 | CCCc1ccc(OCCCc2cc3c(cc2O)CCO3)cc1
49 | 95 to 98 | c1ccc([C@H]2OC[C@@H](OCc3ccccn3)CO2)cc1
50 | 210 to 214 | NC(=O)c1cccc(C2(O)C3CCC2CN(Cc2ccccc2)C3)c1 (stereo unspecified)
51 | 73.5 to 75 | CCc1cn(C(C)C(=O)N(C)C)nc1-c1ccccc1 (stereo unspecified)
52 | 188 to 190 | CCOC(=O)c1ncn(C(c2ccccc2)(c2ccccc2)c2ccccc2)c1C
53 | > 260 | Cc1cccc2nc(NC(=N)N)[nH]c12
54 | 273 to 275 | NC(=O)c1ccc(-c2cnc3[nH]c(=O)n(CC4CCOCC4)c3n2)cc1
55 | 144 to 145 | Cc1ccc(-n2nc(C(F)(F)F)cc2-c2ccc(S(C)(=O)=O)c(F)c2)cc1Cl
56 | 182 | CCCCc1ncc(C=O)n1Cc1ccc(C(=O)O)c2ccccc12
57 | 94 | Cc1ccc(-c2cccc(CCl)n2)cc1
58 | 128 | Oc1ccc(Cl)cc1C(O)(Cc1ccccc1)c1ccccc1 (stereo unspecified)
59 | 48 to 50 | Cn1ccc(C(=O)c2ccc(Cl)cc2)c1
60 | 303 to 306 | Cc1nn(-c2ccccn2)c2[nH]c3cccc(C(=O)O)c3c(=O)c12
61 | 285 | COc1cccc(N2CCN(c3cc4c(cc3F)ncc3c4c(=O)c(C(=O)O)cn3C)CC2C)c1 (stereo unspecified)
62 | 163 to 165 | OCCNc1c(Br)cnc2ccccc12
63 | 252 to 254 | COc1ccc(-n2cc(C(=O)O)c(=O)c3cc(F)c(F)c(F)c32)cc1
64 | 104 to 108 | COC(=O)C1=C(Cc2ccccc2)C(=O)NCC1

Row | melting point [°C] | Structure (SMILES)
65 | 112 to 115 | COc1cc(CC(=O)NCCOc2ccc(C(=O)O)cc2[N+](=O)[O-])ccc1NC(=O)Nc1ccccc1C
66 | 149 | CCOC(=O)C(=NO)C(=O)c1ccc(Br)cc1
67 | 107 to 108 | Cc1nccc(-c2ccccc2)c1CC[C@H]1C[C@H](O)CC(=O)O1 (relative stereo)
68 | 149 to 151 | CSc1cc(Oc2cccc(C(F)(F)F)c2)nc(C(=O)NN)c1
69 | 78 to 80 | Cc1cc(-c2cc(C(F)(F)F)nn2-c2ccc(S(N)(=O)=O)c(F)c2)ccc1-c1ccco1
70 | 219 to 222 | Cc1coc(NC(=O)C2c3ccccc3Oc3ccccc32)n1
71 | 74 to 77 | COc1ccccc1-c1nn(C(C)C(=O)N(C)C)cc1Cl (stereo unspecified)
72 | 159 to 160 | CS(=O)(=O)c1ccc(Oc2cc(OCc3ccccc3)c3[nH]c(-c4nnc(CO)s4)cc3c2)cc1
73 | 53 to 54 | CCc1ccc(CCOc2ccc([N+](=O)[O-])cc2)nc1
74 | > 300 | O=C(O)c1cn(C2CC2)c2nc(N3Cc4cccc(Cl)c4C3)c(F)cc2c1=O
75 | > 300 | CC(C)CCn1ccc(-c2ccc(NC3CCOCC3)cc2)c(Cl)c1=O
76 | 242 | Cc1ccc(-n2nc3c4cc(/C=C/C(=O)OCc5ccccc5)ccc4[nH]c(=O)n3c2=O)cc1
77 | 157 to 159 | O=C(NCCCCOc1ccc(-n2ccnc2)cc1)c1cccc2ccccc12
78 | 172 to 175 | CC(=O)c1cc(N2CCOCC2)ccc1NC(=O)c1ccc(OCc2ccccc2)cc1
79 | 175 | CCOC(=O)N1CCCC(Nc2nc3ccccc3[nH]2)CC1 (stereo unspecified)
80 | 185 to 186 | CC(=O)OC(OC(C)=O)c1ccc2occ(C#N)c(=O)c2c1
81 | 174 to 176 | CCC(C)(C)c1cc(-c2cccc(C=C3SC(N4CCOCC4)=NC3=O)c2)ccc1O
82 | 248 to 250 | COc1ccc(Cl)cc1-c1c(N)c(=O)[nH]c2ccccc12
83 | 147 to 148 | Cc1ccc2nc(CO)cc(Cl)c2c1
84 | 172 to 173 | O=C(O)C=CC(=O)c1ccccc1O
85 | 161 | NCCc1cc(Cl)c(NC(=O)CN2CCN(CCCCC(c3ccc(F)cc3)c3ccc(F)cc3)CC2C(N)=O)c(Cl)c1 (stereo unspecified)

Row | melting point [°C] | Structure (SMILES)
86 | 159 to 160 | CCOC(=O)N1CCN(C2c3ccccc3C=Cc3ccccc32)CC1
87 | 115 | COC(COc1ccc(C(=O)NCC(NC(=O)OCc2ccccc2)C(=O)OC(C)(C)C)cc1)OC (stereo unspecified)
88 | 202 to 204 | COc1ccc(-c2coc3cc(OC)cc(OC)c3c2=O)c(OC)c1
89 | 98 to 99 | O=C1OC(c2ccccc2)CN1Sc1ccc(Cl)cc1 (stereo unspecified)
90 | 125 to 126 | Cc1ccc(S(=O)(=O)N(O)S(=O)(=O)c2ccc(C)cc2)cc1
91 | 90 to 91 | Cc1sc(-c2ccccc2)nc1-c1ccc(Cl)cc1
92 | 115 to 117 | O=[N+]([O-])c1ccc(Sc2cccc3cnccc23)nc1
93 | 240 to 242 | CCn1c(=O)c(C(N)=O)c(O)c2ccc(C)nc21
94 | 194 to 198 | COc1ccc(-c2ccc(C(=O)Nc3cc4ncc(CN5CCCC5)cc4cc3C)cc2)cc1
95 | 196 to 197 | O=C(NCCO)c1cccc(-c2ccc3ccn(-c4ncc(Cl)cc4Cl)c3n2)c1
96 | 256 | N#CSc1cc2sc(NC(=O)C3CC3)nc2cc1F
97 | 126 to 127 | Cc1cccc(OCC2=NCCN2C(=O)Oc2cccc(C)c2C)c1C
98 | 86 to 89 | CC(C)(C)OC(=O)N1CCC[C@H]1COc1cnc(Cl)c(-c2ccc(Cl)cc2)c1
99 | 96 to 97 | Cn1ncc2c1-c1c(Cc3ccccc3)sc(C(N)=O)c1CC2
100 | 99 to 103 | CN(C)CCNc1cc(Sc2ccc(Cl)cc2)nc(-c2ccc(Cl)c(Cl)c2)n1
101 | 165 to 166 | C#CCc1c(C)nc2c(NCc3c(C)cccc3NC(=S)NC(=O)c3ccccc3)cccn12
102 | 48 to 50 | CCC1(C)Oc2cccc(O)c2O1 (stereo unspecified)
103 | 131 to 132 | COc1ccc(NC(=O)CCCCC(=O)Cc2ccccc2)cc1
104 | 194 to 200 | CN(C)c1ccc2c(c1)Sc1cc(OC(=O)c3ccccc3)ccc1N2C(=O)c1ccccc1
105 | 175 to 176 | O=C(Nc1ccc(CN2CCC(=O)C(=C3SC=CS3)C2=O)cc1)OCc1ccccc1
106 | 75 to 78 | ClCCOc1cccc2ncccc12
